In patent US20250197428A1, “INHIBITORS OF KIF18A AND USES THEREOF” (ACCENT THERAPEUTICS, INC., priority 2022, published 2025):
Where two headings read alike, the source gives them in different places.

Legend:
OVCAR-3 cells = assay: In vitro anti-proliferative activity assay in cancer cell line OVCAR-3 (CellTiter-Glo, 4- or 7-day); format: cell-based; details: Homo sapiens, read-out: OVCAR-3 cellular antiproliferation assay IC50
[1] = Caco-2 permeation assay, bidirectional permeability; format: in vitro ADME; details: human, Caco-2, pH 7.4, 5 μM, Papp(B-A)/Papp(A-B)
Protocol: 1. Caco-2 Permeation Assay: Evaluation of the Bidirectional Permeabilities of Compounds.
Samples were analyzed through LC/MS/MS for estimating the apparent permeability coefficients (Papp) of compounds across Caco-2 cell monolayers. Caco-2 cells (American Type Culture Collection) were incubated and seeded onto HTS Transwell-96 Well Permeable Supports (Corning Corporation) for 14 days using a cell medium consisting of Dulbecco's Modified Eagle's Medium (DMEM) with high glucose and L-glutamine supplemented with 10% FBS, 1× penicillin-streptomycin mixture and 1×non-essential amino acids (NEAA). Cell monolayer integrity was measured using an automated tissue resistance measuring system (World Precision Instruments). Stock solutions of compounds and control compounds in DMSO were diluted with HBSS (10 mM HEPES, pH 7.4) to reach a final concentration of 5 μM with a final concentration of DMSO <0.1%. HBSS was then removed after 30 minutes of preincubation, and 75 μL of test compound was added to the apical compartment of the Transwell insert. The basolateral compartment was filled with 235 μL of HBSS (10 mM HEPES, pH 7.4) containing 2% BSA. Rate of drug transport in the basolateral to apical direction was obtained by adding 235 μL of test compound to the receiver plate wells (basolateral compartment) and filling with 75 μL of HBSS (10 mM HEPES, pH 7.4) containing 2% BSA. Time 0 samples were prepared by transferring 25 μL of 5 μM working solution to wells of the 96-deepwell plate containing 25 μL HBSS (10 mM HEPES and 2% BSA, pH 7.4), followed by the addition 200 μL of cold methanol containing appropriate internal standards (100 nM alprazolam, 200 nM labetalol, 200 nM caffeine and 200 nM diclofenac). After incubating at 37° C. for 2 h, 25 μL samples from donor sides (apical compartment) were transferred to a 96-well plate containing 25 μL HBSS (10 mM HEPES and 2% BSA, pH 7.4). 25 μL samples from receiver sides (basolateral compartment) were removed and transferred to a new plate containing 25 μL HBSS (10 mM HEPES, pH 7.4). 200 μL of cold methanol containing internal standards (100 nM alprazolam, 200 nM labetalol, 200 nM caffeine and 200 nM diclofenac) was added to terminate the reaction. Samples were vortexed for 5 minutes and then centrifuged at 3,220 g for 40 minutes. An aliquot of 100 μL of the supernatant is mixed with 100 μL of ultra-pure water for LC-MS/MS analysis. All incubations are performed in duplicate. Solutions were discarded from the transwell plate. 100 μL Lucifer Yellow solution (100 μM in HBSS) was added to each well of transwell insert and 300 μL of HBSS to each well of receiver. After incubating at 37° C. for 30 minutes, 80 μL was aliquotted from each well of apical and basolateral sides to a solid black plate. The plate was then read with Tecan Infinite™ M 200 (Excitation/Emission wavelength […]).
All calculations were carried out using Microsoft Excel. Peak areas were determined from extracted ion chromatograms. The leakage of Lucifer Yellow, in unit of percentage (%), can be calculated using the following equation: […]
LY leakage of <1% is acceptable to indicate the well-qualified Caco-2 monolayers. The apparent permeability coefficient (Papp), in units of centimeter per second, can be calculated for Caco-2 drug transport assays using the following equation: […]
Where VA is the volume (in mL) in the receiver well (0.235 mL for Ap→Bl flux and 0.075 mL for Bl→Ap flux), Area is the surface area of the membrane (0.143 cm^2 for HTS Transwell-96 Well Permeable Supports), and time is the total transport time in seconds. The efflux ratio can be determined using the following equation: […]
Where Papp (B-A) indicates the apparent permeability coefficient in basolateral to apical direction, and Papp (A-B) indicates the apparent permeability coefficient in apical to basolateral direction.
The recovery can be determined using the following equation: […]

KIF18A = KIF18A (Homo sapiens (Human), UniProt Q8NI77); assay: KIF18A Biochemical Assay (ATPase, ADP-Glo)
Sequence of KIF18A (Q8NI77 1-367): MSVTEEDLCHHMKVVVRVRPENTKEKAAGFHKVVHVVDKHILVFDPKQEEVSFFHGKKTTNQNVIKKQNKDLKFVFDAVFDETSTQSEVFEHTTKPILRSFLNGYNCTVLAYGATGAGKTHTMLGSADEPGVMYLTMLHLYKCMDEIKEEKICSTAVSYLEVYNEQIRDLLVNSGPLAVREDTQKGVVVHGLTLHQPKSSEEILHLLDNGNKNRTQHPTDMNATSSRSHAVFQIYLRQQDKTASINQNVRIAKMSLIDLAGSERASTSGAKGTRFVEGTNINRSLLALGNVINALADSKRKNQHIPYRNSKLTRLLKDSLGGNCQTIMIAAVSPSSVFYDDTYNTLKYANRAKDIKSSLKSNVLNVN
Sequence of KIF18A (P02550 whole entry partner): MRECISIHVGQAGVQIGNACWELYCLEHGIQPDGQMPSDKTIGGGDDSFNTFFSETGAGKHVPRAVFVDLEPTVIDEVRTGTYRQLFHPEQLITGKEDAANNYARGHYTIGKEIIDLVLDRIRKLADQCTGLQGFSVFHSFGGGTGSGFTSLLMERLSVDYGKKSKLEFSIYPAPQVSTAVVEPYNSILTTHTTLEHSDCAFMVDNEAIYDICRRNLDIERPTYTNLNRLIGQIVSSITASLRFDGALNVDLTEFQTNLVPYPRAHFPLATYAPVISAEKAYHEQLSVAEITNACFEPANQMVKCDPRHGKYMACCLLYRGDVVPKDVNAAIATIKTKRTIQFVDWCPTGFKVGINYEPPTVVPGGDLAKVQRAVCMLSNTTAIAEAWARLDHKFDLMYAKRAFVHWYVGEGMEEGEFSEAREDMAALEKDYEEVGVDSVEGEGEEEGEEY
Sequence of KIF18A (P02554 whole entry partner): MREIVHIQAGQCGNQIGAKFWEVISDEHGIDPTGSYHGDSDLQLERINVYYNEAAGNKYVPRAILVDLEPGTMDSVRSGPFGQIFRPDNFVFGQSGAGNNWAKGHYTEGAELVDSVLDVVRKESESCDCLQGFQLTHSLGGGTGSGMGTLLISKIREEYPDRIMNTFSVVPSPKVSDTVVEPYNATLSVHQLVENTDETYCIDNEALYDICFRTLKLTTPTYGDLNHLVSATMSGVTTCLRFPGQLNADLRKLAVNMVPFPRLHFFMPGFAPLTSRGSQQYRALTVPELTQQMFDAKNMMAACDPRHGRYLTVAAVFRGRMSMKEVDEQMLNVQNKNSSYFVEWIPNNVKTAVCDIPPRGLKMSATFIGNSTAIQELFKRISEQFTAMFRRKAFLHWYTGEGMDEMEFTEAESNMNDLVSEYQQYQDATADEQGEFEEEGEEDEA

## C[Si]1(C)CCN(c2cc(NS(=O)(=O)CCO)ccc2C(=O)Nc2ccnc(N3CCCC(C#N)C3)n2)CC1 (centres unmarked) [Example 94]
OVCAR-3 cells; OVCAR-3, 96 h, 4-day assay
  IC50: 100 to 500 nM
[1]
  efflux ratio at 2 h, 5 μM: < 10

## C[Si]1(C)CCN(c2cc(NS(=O)(=O)CCO)ccc2NC(=O)c2cccc(N3CCC(F)(F)CC3)n2)CC1 [Example 96]
OVCAR-3 cells; OVCAR-3, 96 h, 4-day assay
  IC50: < 100 nM
[1]
  efflux ratio at 2 h, 5 μM: < 10

## Cc1cc(NC(=O)c2ncc(NS(=O)(=O)CCO)cc2N2CC[Si](C)(C)CC2)nc(N2CCC(F)(F)CC2)n1 [Example 26]
KIF18A
  IC50: < 100 nM
OVCAR-3 cells; OVCAR-3, 96 h, 4-day assay
  IC50: 100 to 500 nM

## C[Si]1(C)CCN(c2cc(NS(=O)(=O)CCO)c(F)cc2NC(=O)c2ccnc(N3CCC(F)(F)CC3)n2)CC1 [Example 90]
OVCAR-3 cells; OVCAR-3, 168 h, 7-day assay
  IC50: 100 to 500 nM
[1]
  efflux ratio at 2 h, 5 μM: < 10

## C[Si]1(C)CCN(c2cc(S(=O)(=O)NCCO)ccc2C(=O)Nc2cccc(OC[C@H](O)C(F)(F)F)n2)CC1 [Example 132]
KIF18A
  IC50: < 100 nM
OVCAR-3 cells; OVCAR-3, 168 h, 7-day assay
  IC50: < 100 nM

## C[Si]1(C)CCN(c2cc(S(=O)(=O)CCO)ccc2C(=O)Nc2cccc(OC[C@@H](O)C(F)(F)F)n2)CC1 [Example 129]
KIF18A
  IC50: < 100 nM
OVCAR-3 cells; OVCAR-3, 168 h, 7-day assay
  IC50: 100 to 500 nM

## Cc1cc(NC(=O)c2ccc(NS(=O)(=O)NCCO)cc2N2CC[C@@]3(C(F)F)C[C@H]3C2)nc(N2CCC(F)(F)CC2)n1 [Example 57]
KIF18A
  IC50: 100 to 500 nM
OVCAR-3 cells; OVCAR-3, 168 h, 7-day assay
  IC50: > 1000 nM

## CC1CN(c2cccc(NC(=O)c3ccc(S(=O)(=O)NCCO)cc3N3CC[Si](C)(C)CC3)n2)CCO1 (centres unmarked) [Example 18]
KIF18A
  IC50: < 100 nM
OVCAR-3 cells; OVCAR-3, 96 h, 4-day assay
  IC50: < 100 nM

## C[Si]1(C)CCN(c2cc(NS(=O)(=O)NCCO)ccc2C(=O)Nc2cccc(OC[C@@H](O)C(F)(F)F)n2)CC1 [Example 125]
KIF18A
  IC50: < 100 nM
OVCAR-3 cells; OVCAR-3, 168 h, 7-day assay
  IC50: 100 to 500 nM

## Cc1cc(NC(=O)c2ccc(NS(=O)(=O)CCO)cc2N2CC[C@@]3(CO)C[C@H]3C2)nc(N2CCC(F)(F)CC2)n1 [Example 39]
KIF18A
  IC50: 100 to 500 nM
OVCAR-3 cells; OVCAR-3, 96 h, 4-day assay
  IC50: > 1000 nM

## Cc1cc(NC(=O)c2ccc(NS(=O)(=O)CCO)cc2N2CC[C@@]3(C(F)F)C[C@H]3C2)nc(OC[C@@H](O)C(F)(F)F)n1 [Example 74]
KIF18A
  IC50: > 1000 nM
OVCAR-3 cells; OVCAR-3, 168 h, 7-day assay
  IC50: > 1000 nM

## Cc1cc(NC(=O)c2ccc(NS(=O)(=O)CCO)cc2N2CC[C@]3(C(C)(F)F)C[C@@H]3C2)nc(N2CCC(F)(F)CC2)n1 [Example 79]
KIF18A
  IC50: 100 to 500 nM
OVCAR-3 cells; OVCAR-3, 168 h, 7-day assay
  IC50: > 1000 nM

## O=C(Nc1ccnc(N2CCC(F)(F)CC2)n1)c1c(F)cc(NS(=O)(=O)CCO)cc1N1CC[C@]2(C(F)F)C[C@@H]2C1 [Example 69]
KIF18A
  IC50: < 100 nM
OVCAR-3 cells; OVCAR-3, 168 h, 7-day assay
  IC50: > 1000 nM

## Cc1cc(NC(=O)c2ccc(S(=O)(=O)NCCO)cc2N2CC[C@]3(C)C[C@@H]3C2)nc(N2CCC(F)(F)CC2)n1 [Example 52]
KIF18A
  IC50: < 100 nM
OVCAR-3 cells; OVCAR-3, 168 h, 7-day assay
  IC50: 100 to 500 nM

## Cc1cc(NC(=O)c2ccc(NS(=O)(=O)CCO)cc2N2CC[C@]3(C(F)F)C[C@@H]3C2)nc(N2CCC(F)(F)CC2)n1 [Example 29a, 2-((1S,6R)-6-(difluoromethyl)-3-azabicyclo[4.1.0]heptan-3-yl)-N-(2-(4,4-difluoropiperidin-1-yl)-6-methylpyrimidin-4-yl)-4-((2-hydroxyethyl)sulfonamido)benzamide]
KIF18A
  IC50: < 100 nM
OVCAR-3 cells; OVCAR-3, 96 h, 4-day assay
  IC50: < 100 nM

## Cc1cc(NC(=O)c2c(F)cc(NS(=O)(=O)CCO)cc2N2CC[C@]3(C(F)F)C[C@@H]3C2)nc(N2CCC(F)(F)CC2)n1 [Example 71]
KIF18A
  IC50: 100 to 500 nM
OVCAR-3 cells; OVCAR-3, 168 h, 7-day assay
  IC50: > 1000 nM

## CNCCS(=O)(=O)Nc1ccc(C(=O)Nc2cccc(N3CCC(F)(F)CC3)n2)c(N2CC[Si](C)(C)CC2)c1 [Example 101]
KIF18A
  IC50: < 100 nM
OVCAR-3 cells; OVCAR-3, 168 h, 7-day assay
  IC50: 100 to 500 nM

## O=C(Nc1ccnc(N2CCC(F)(F)CC2)n1)c1ccc(NS(=O)(=O)CCO)cc1N1CC[C@@]2(C(F)F)C[C@H]2C1 [Example 61]
KIF18A
  IC50: < 100 nM
OVCAR-3 cells; OVCAR-3, 168 h, 7-day assay
  IC50: 100 to 500 nM

## Cc1cc(NC(=O)c2ccc(S(=O)(=O)NCCO)cc2N2CC[C@@]3(C)C[C@H]3C2)nc(N2CCC(F)(F)CC2)n1 [Example 53]
KIF18A
  IC50: < 100 nM
OVCAR-3 cells; OVCAR-3, 168 h, 7-day assay
  IC50: 100 to 500 nM

## Cc1cc(NC(=O)c2ccc(NS(=O)(=O)CCO)cc2N2CC[C@]3(F)CC[C@@H]3C2)nc(N2CCC(F)(F)CC2)n1 (single isomer, unassigned) [Example 50a]
KIF18A
  IC50: < 100 nM
OVCAR-3 cells; OVCAR-3, 168 h, 7-day assay
  IC50: 100 to 500 nM

## Cc1cc(NC(=O)c2ccc(NS(=O)(=O)CCO)cc2N2CC[C@]3(C(F)F)C[C@@H]3C2)nc(OC[C@@H](O)C(F)(F)F)n1 [Example 73]
KIF18A
  IC50: > 1000 nM
OVCAR-3 cells; OVCAR-3, 168 h, 7-day assay
  IC50: > 1000 nM

## O=C(Nc1cccc(N2CCC(F)(F)CC2)n1)c1ccc(NS(=O)(=O)CCO)cc1N1CC[C@]2(C(F)F)C[C@@H]2C1 [Example 64]
KIF18A
  IC50: < 100 nM
OVCAR-3 cells; OVCAR-3, 168 h, 7-day assay
  IC50: < 100 nM

## Cc1cc(NC(=O)c2ccc(NS(C)(=O)=O)cc2N2CC[C@@]3(C(F)F)C[C@H]3C2)nc(N2CCC(F)(F)CC2)n1 [Example 55]
KIF18A
  IC50: < 100 nM
OVCAR-3 cells; OVCAR-3, 168 h, 7-day assay
  IC50: 500 to 1000 nM

## Cc1cc(NC(=O)c2ccc(NS(C)(=O)=O)cc2N2CC[C@]3(C)C[C@@H]3C2)nc(N2CCC(F)(F)CC2)n1 [Example 33]
KIF18A
  IC50: < 100 nM
OVCAR-3 cells; OVCAR-3, 96 h, 4-day assay
  IC50: 100 to 500 nM

## Cc1cc(NC(=O)c2ccc(NS(=O)(=O)CCO)cc2N2CCC3(C(F)F)CC3C2)nc(N2CCC(F)(F)CC2)n1 (centres unmarked) [Example 41]
KIF18A
  IC50: < 100 nM
OVCAR-3 cells; OVCAR-3, assay duration not indicated
  IC50: < 100 nM

## C[Si]1(C)CCN(c2cc(S(=O)(=O)CCO)ccc2C(=O)Nc2cccc(OC[C@H](O)C(F)(F)F)n2)CC1 [Example 130]
KIF18A
  IC50: < 100 nM
OVCAR-3 cells; OVCAR-3, 168 h, 7-day assay
  IC50: 100 to 500 nM

## C[Si]1(C)CCN(c2cc(NS(=O)(=O)CCO)ccc2C(=O)Nc2cccc(N3CCC(F)(F)CC3)n2)CC1 [Example 3, N-(6-(4,4-difluoropiperidin-1-yl)pyridin-2-yl)-2-(4,4-dimethyl-1,4-azasilinan-1-yl)-4-((2-hydroxyethyl)sulfonamido)benzamide]
KIF18A
  IC50: < 100 nM
OVCAR-3 cells; OVCAR-3, 96 h, 4-day assay
  IC50: < 100 nM

## C[Si]1(C)CCN(c2cc(NS(=O)(=O)CCO)ccc2C(=O)Nc2cccc(S(=O)(=O)C3CCCC3)n2)CC1 [Example 22]
KIF18A
  IC50: 100 to 500 nM
OVCAR-3 cells; OVCAR-3, 96 h, 4-day assay
  IC50: < 100 nM

## C[Si]1(C)CCN(c2cc(NS(=O)(=O)CCO)cc(F)c2C(=O)Nc2cccc(OC[C@@H](O)C(F)(F)F)n2)CC1 [Example 123]
KIF18A
  IC50: < 100 nM
OVCAR-3 cells; OVCAR-3, 168 h, 7-day assay
  IC50: 500 to 1000 nM

## CO[C@]12CCN(c3cc(NS(=O)(=O)CCO)ccc3C(=O)Nc3cc(C)nc(N4CCC(F)(F)CC4)n3)C[C@H]1C2 [Example 81]
KIF18A
  IC50: < 100 nM
OVCAR-3 cells; OVCAR-3, 168 h, 7-day assay
  IC50: 500 to 1000 nM

## C[Si]1(C)CCN(c2cc(S(=O)(=O)NCCO)ccc2C(=O)Nc2cccc(OC[C@@H](O)C(F)(F)F)n2)CC1 [Example 131]
KIF18A
  IC50: < 100 nM
OVCAR-3 cells; OVCAR-3, 168 h, 7-day assay
  IC50: < 100 nM
